Measurements as given in article PMC5856881, “UGT79B31 is responsible for the final modification step of pollen-specific flavonoid biosynthesis in Petunia hybrida” (Planta, 2017).

Biological target: T1, UGT79B31 (Petunia x hybrida, UniProt A0A2Z6FLE1)
T1 construct: full-length, cloned from petunia pollen cDNA; His/ProS2 fusion (pColdProS2) in E. coli BL21star (DE3), tag cleaved with HRV3C protease; partially purified
Assay: end-product inhibition, UPLC/PDA/QTOF/MS glucosyltransferase assay
Assay type: biochemical
Conditions: read-out: Relative activity (%)
Excerpt: end-product inhibition, UPLC/PDA/QTOF/MS glucosyltransferase assay on UGT79B31

T1 sequence (A0A2Z6FLE1 1-455): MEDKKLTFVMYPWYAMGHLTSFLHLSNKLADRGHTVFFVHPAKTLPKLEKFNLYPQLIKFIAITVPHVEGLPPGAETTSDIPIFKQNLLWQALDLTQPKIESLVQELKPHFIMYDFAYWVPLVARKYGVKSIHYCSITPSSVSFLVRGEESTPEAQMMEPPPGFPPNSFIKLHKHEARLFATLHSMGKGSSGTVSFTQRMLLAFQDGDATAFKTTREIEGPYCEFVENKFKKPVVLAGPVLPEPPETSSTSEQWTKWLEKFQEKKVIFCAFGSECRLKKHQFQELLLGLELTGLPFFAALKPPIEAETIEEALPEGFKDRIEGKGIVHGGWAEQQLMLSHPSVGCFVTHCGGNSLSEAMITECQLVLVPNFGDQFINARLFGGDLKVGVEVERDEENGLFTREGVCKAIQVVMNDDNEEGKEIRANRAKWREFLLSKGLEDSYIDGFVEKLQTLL

Question: With O=c1ccn([C@@H]2O[C@H](COP(=O)(O)OP(=O)(O)O)[C@@H](O)[C@H]2O)c(=O)[nH]1 [UDP] as the molecule, how does the activity at 1000 µM read?
Answer: 4.2 ± 0.1%
